Values quoted from earlier work as cited in patent US20070148100A1 (priority 2005, published 2007).

How the values were obtained:
[1] = system: alpha-adrenergic receptors
[2] = system: cholinergic muscarinic receptors
[3] = target: 5-HT2A receptor (Homo sapiens, UniProt P28223)
[4] = system: histamine receptors
[5] = target: T1, 5-HT1A receptor (Homo sapiens, UniProt P08908)
T1 sequence (P08908 1-422): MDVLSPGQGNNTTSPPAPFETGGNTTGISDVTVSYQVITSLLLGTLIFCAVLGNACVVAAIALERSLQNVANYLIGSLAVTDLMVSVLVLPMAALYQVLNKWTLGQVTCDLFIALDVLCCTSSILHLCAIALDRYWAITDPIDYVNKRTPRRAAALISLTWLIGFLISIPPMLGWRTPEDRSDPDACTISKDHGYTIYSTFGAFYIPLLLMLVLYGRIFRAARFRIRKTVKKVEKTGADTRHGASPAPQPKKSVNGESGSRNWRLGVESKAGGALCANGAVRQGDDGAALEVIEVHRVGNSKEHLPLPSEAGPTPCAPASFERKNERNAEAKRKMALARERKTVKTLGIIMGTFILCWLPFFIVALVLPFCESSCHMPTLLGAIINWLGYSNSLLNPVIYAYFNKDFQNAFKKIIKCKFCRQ

Sequence of 5-HT2A receptor (P28223 whole entry): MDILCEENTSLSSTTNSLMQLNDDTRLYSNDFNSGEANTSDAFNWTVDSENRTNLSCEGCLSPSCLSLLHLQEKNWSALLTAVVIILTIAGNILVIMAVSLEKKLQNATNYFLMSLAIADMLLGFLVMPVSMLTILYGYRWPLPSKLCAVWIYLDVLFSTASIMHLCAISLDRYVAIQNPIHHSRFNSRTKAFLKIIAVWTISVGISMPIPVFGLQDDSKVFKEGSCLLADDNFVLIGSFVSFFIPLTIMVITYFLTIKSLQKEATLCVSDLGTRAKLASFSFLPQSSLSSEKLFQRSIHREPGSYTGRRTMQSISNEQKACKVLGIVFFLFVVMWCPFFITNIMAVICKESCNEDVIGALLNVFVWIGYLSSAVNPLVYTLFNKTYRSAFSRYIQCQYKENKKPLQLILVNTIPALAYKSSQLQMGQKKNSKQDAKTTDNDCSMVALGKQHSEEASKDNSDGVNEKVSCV

SMILES: O=C1CCc2ccc(OCCCCN3CCN(c4cccc(Cl)c4Cl)CC3)cc2N1 [Aripiprazole, 7-[4-[4-(2,3-dichlorophenyl)-1-piperazinyl]butoxy]-3,4-dihydrocarbostyril]
- elimination half-life (in vivo): approximately 75 hours
- kinetics (linearity) (in vivo): linear kinetics
- bioavailability (oral tablets): about 90%
- affinity for alpha-adrenergic receptors [1]: moderate affinity
- affinity for cholinergic muscarinic receptors [2]: no appreciable affinity
- activity at the 5-HT2A receptor [3]: antagonist profile
- affinity for histamine receptors [4]: moderate affinity
- activity at the 5-HT1A receptor [5]: partial agonist
